Assay [1] concerns the target T1, MBP-SNX17H457A (Homo sapiens, UniProt Q15036, H457A).
T1 construct: M protein marker, R Retriever complex, FL full-length; His (N, cleaved yes); made in house; host or cells: Escherichia coli BL21(DE3)
T1 sequence (Q15036 1-470 H457A): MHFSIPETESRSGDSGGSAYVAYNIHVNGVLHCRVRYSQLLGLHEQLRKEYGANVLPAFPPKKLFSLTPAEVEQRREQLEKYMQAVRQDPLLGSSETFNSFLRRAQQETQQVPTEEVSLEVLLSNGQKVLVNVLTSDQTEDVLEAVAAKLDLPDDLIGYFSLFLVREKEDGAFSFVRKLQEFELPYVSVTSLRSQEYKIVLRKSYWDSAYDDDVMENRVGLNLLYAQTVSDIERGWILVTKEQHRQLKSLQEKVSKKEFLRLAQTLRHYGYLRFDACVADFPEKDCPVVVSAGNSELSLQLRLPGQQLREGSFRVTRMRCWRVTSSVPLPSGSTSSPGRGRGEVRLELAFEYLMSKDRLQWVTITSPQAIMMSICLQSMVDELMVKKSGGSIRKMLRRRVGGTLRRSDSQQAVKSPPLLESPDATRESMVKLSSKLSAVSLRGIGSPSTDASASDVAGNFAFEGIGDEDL
Briefly: Fluorescence anisotropy binding of 5-FAM peptides to MBP-SNX17 H457A. The method, then:
(§1) Lyophilized peptides were resuspended in 100 mM Hepes pH 8.0 at 5 mg/ml and further diluted in the assay buffer (50 mM Hepes pH 7.5, 300 mM NaCl, and 1 mM DTT). […] The mixture was incubated at 25 °C for at least 30 min and then transferred to 96 Flat Black plates. Fluorescence anisotropy was measured at 25 °C using Spark 10M Plate Reader (Tecan) with a 485/20 excitation filter and a 535/35 emission filter. The dissociation constants were calculated in GraphPad Prism by nonlinear regression fitting of the experimental data to a one-site total binding model. The final KD measurement is the mean of at least two independent experiments.
In general terms: Fluorescence polarisation rises when a labelled molecule tumbles more slowly, as on binding a larger partner.

The target of assay [2] is T2, MBP-SNX17 WT (Homo sapiens, UniProt Q15036).
T2 construct: M protein marker, R Retriever complex, FL full-length; His (N, cleaved yes); made in house; host or cells: Escherichia coli BL21(DE3)
T2 sequence (Q15036 1-470): T1 sequence (Q15036 1-470 H457A) with A457H
Briefly: Fluorescence anisotropy binding of 5-FAM peptides to MBP-SNX17 wild-type. The method, then:
as §1

Residue numbers refer to the chain shown, from its start. Where no end group is shown, it is not given here.

With KLITYDNPAYEGID [L2 14-mer], the figures for the Kd in assay [1] and in assay [2] were 1.1 ± 0.3 µM and 1.1 ± 0.1 µM, respectively.

The term Kd denotes the free concentration of one partner at which half of the binding sites on the other are occupied at equilibrium, for simple one-to-one binding. A lower Kd goes with higher affinity.

The values are drawn from PMC11772769, “Selective cargo and membrane recognition by SNX17 regulates its interaction with Retriever” (EMBO Reports, 2024).
